Measured values published in US5001158A, “Nitrosoureas compounds preparation thereof and utilization thereof in anticancerous” (Centre National de la Recherche Scientifique, priority 1990, dated 1991).

Columns and labels:
leukemia L 1210 = experiment: Antitumoral activity of A1 and A2 on leukemia L 1210 grafted i.p. in mice (ICIG); format: in vivo, mice (B6 D2 F1 OLA); settings: for antitumoral activity (in words): isomers separately
Protocol: This activity was also studied on mice carrying leukemia L 1210 grafted i.p. This experimental tumor is the one most frequently used in the primary screening of cytostatic drugs.
These tests were conducted in parallel in two laboratories: at Unit 71 of the Institut National de la Sante et de la Recberche Mediecale (INSERM), ClermontFerrand, and at the Institut de Cancerologie et d' Immunogenetique (ICIG), Villejuif.
On day D:0, three-month-old male B6 D2 F1 mice received 10^5 cells of the leukemia strain L 1210 by intraperitoneal administration. The animals are divided up into groups of 8 to 10 animals for the control groups and 6 to 8 animals for the treated groups. On days D:1, D:5 and D:9, the animals receive the treatment at different doses by intraperitoneal or intravenous administration. The CNCC is administered as a suspension in olive oil. The products according to the invention are administered in physiological serum. The mortality is recorded every day. The survival median was determined for the treated animals and the control animals. The results are considered to be positive if the index I= [formula] is greater than 125.
The value .infin. means that 50% to 100% of the animals have survived to day D:90.
The cytostatic activity oi A1 and A2 on leukemia L 1210 was evaluated on B6 D2 F1 OLA mice at ICIG.
ICIG also studied the antitumoral activity of each isomer A1 and A2, separately administered intravenously, on leukemia L 1210. […] Comparison of the active doses with those of CNCC is impossible because of the insolubility of CNCC, as mentioned previously.

[1] = Plasma concentrations of A1 and A2 after oral administration, mice; format: in vivo; settings: mouse, n = 10; for concentration at 1.5 h: 1 H 30 MIN; for concentration: 3 H; for concentration at 4.5 h: 4 H 30 MIN; for concentration at 0.25 h: 15 MIN; for concentration at 0.5 h: 30 MIN; for concentration at 0.75 h: 45 MIN
Protocol: (§1) The plasma absorption and clearance kinetics of the products A1 and A2 according to the invention were studied on different animal species after oral administration. A mixture A1 A2 in the proportions 70%/30% was used so as to be able to make a comparison with CNCC. The mixture A1 A2 and the CNCC were administered at equivalent doses and the plasma concentrations of A1 and A2 were measured as a function of time. cl (a) Experimental protocol
(§2) A solution of the mixture A1 A2 in distilled water is administered by stomach tube at a dose of 574 mg/m^2. A suspension of CNCC in olive oil is administered at a dose of 500 mg/m^2, also by stomach tube.
(§3) The blood, taken by cardiac puncture, is centrifuged rapidly at 4° C. The plasma (1 ml) is deposited on a cartridge of Extrelut® and extraction is carried out with 6 ml of methylene chloride. After evaporation, the dry extract is taken up in 150 μl of methylene chloride for chromatographic analysis.
(§4) Analysis of the plasma extracts for measuring the concentrations of A1 and A2 was performed by high performance liquid chromatography using the following technology:
(§5) Detector: Pye Unicam spectrophotometer (Philips)λ250 nm.
(§6) Elution carried out by means of a linear gradient ranging from methylene chloride 99.6%/ethanol 0.4% to methylene chloride 95%/ethanol 5% in 15 minutes

[2] = Plasma concentrations of A1 and A2 after oral administration, rats; format: in vivo; settings: rat, n = 5; for concentration at 1.5 h: 1 H 30 MIN; for concentration: 3 H; for concentration at 4.5 h: 4 H 30 MIN; for concentration at 0.25 h: 15 MIN; for concentration at 0.5 h: 30 MIN; for concentration at 0.75 h: 45 MIN
Protocol: as §1, §2, §3, §4, §5, §6

[3] = Plasma concentrations of A1 and A2 after oral administration, rabbits; format: in vivo; settings: rabbit, n = 5; for concentration at 1.5 h: 1 H 30 MIN; for concentration: 3 H; for concentration at 4.5 h: 4 H 30 MIN; for concentration at 0.25 h: 15 MIN; for concentration at 0.5 h: 30 MIN; for concentration at 0.75 h: 45 MIN
Protocol: as §1, §2, §3, §4, §5, §6

[4] = Pharmacokinetic comparison of mixture A1 A2 with CNCC, all animal species; format: in vivo, mice, rats and rabbits; settings: p.o.; for plasma concentrations after A1 A2 compared with after CNCC (in words): equivalent doses, whatever the animal species
Protocol: as §1, §2, §3, §4
The plasma concentrations of A1 and A2 after oral administration of either the mixture A1 A2 or CNCC to mice, rats and rabbits are reported in Table V.

[5] = after mixture A1 A2 574 mg/m^2 p.o.

SMILES: C[S+]([O-])CCNC(=O)N(CCCl)N=O (centres unmarked) [Compound A2]
- T/C × 100 (leukemia L 1210; 5 mg/kg i.v.): .infin. (50% to 100% of the animals have survived to day D:90)
- T/C × 100 (leukemia L 1210; 10 mg/kg i.v.): .infin. (50% to 100% of the animals have survived to day D:90)
- interval between doses for maximum efficacy (IDME) (leukemia L 1210; i.v.): presence of an IDME
- percentage of mice surviving to day D:100 (in words) (leukemia L 1210; i.v.): high percentage
- antitumoral activity (in words) (leukemia L 1210; i.v.): high activity
- concentration at 1.5 h ([1]; after CNCC 500 mg/m^2 p.o.): 12.7 µM
- concentration at 1 h ([1]; after CNCC 500 mg/m^2 p.o.): 19 µM
- concentration at 2 h ([1]; after CNCC 500 mg/m^2 p.o.): 9.9 µM
- concentration ([1]; after CNCC 500 mg/m^2 p.o.): 6.7 µM
- concentration at 4.5 h ([1]; after CNCC 500 mg/m^2 p.o.): 3.5 µM
- concentration at 5 min ([1]; after CNCC 500 mg/m^2 p.o.): 5.3 µM
- concentration at 0.25 h ([1]; after CNCC 500 mg/m^2 p.o.): 13.2 µM
- concentration at 0.5 h ([1]; after CNCC 500 mg/m^2 p.o.): 35.7 µM
- concentration at 0.75 h ([1]; after CNCC 500 mg/m^2 p.o.): 16.5 µM
- concentration at 1.5 h [1, 5]: 10.8 µM
- concentration at 1 h [1, 5]: 29.9 µM
- concentration at 2 h [1, 5]: 6.3 µM
- concentration [1, 5]: 2.9 µM
- concentration at 4.5 h [1, 5]: 0.9 µM
- concentration at 5 min [1, 5]: 83 µM
- concentration at 0.25 h [1, 5]: 81.5 µM
- concentration at 0.5 h [1, 5]: 66.3 µM
- concentration at 0.75 h [1, 5]: 43.7 µM
- concentration at 1.5 h ([2]; after CNCC 500 mg/m^2 p.o.): 11.4 µM
- concentration at 1 h ([2]; after CNCC 500 mg/m^2 p.o.): 8.1 µM
- concentration at 2 h ([2]; after CNCC 500 mg/m^2 p.o.): 6.4 µM
- concentration ([2]; after CNCC 500 mg/m^2 p.o.): 6.5 µM
- concentration at 4.5 h ([2]; after CNCC 500 mg/m^2 p.o.): 2.2 µM
- concentration at 5 min ([2]; after CNCC 500 mg/m^2 p.o.): 0.9 µM
- concentration at 0.25 h ([2]; after CNCC 500 mg/m^2 p.o.): 3.2 µM
- concentration at 0.5 h ([2]; after CNCC 500 mg/m^2 p.o.): 5.4 µM
- concentration at 0.75 h ([2]; after CNCC 500 mg/m^2 p.o.): 7.2 µM
- concentration at 1.5 h [2, 5]: 12.9 µM
- concentration at 1 h [2, 5]: 14.2 µM
- concentration at 2 h [2, 5]: 7.8 µM
- concentration [2, 5]: 2.9 µM
- concentration at 5 min [2, 5]: 8.5 µM
- concentration at 0.25 h [2, 5]: 17.7 µM
- concentration at 0.5 h [2, 5]: 22.5 µM
- concentration at 0.75 h [2, 5]: 11.4 µM
- concentration at 1.5 h ([3]; after CNCC 500 mg/m^2 p.o.): 4.2 µM
- concentration at 2 h ([3]; after CNCC 500 mg/m^2 p.o.): 3.5 µM
- concentration ([3]; after CNCC 500 mg/m^2 p.o.): 2 µM
- concentration at 4.5 h ([3]; after CNCC 500 mg/m^2 p.o.): 1 µM
- concentration at 5 min ([3]; after CNCC 500 mg/m^2 p.o.): 1.8 µM
- concentration at 0.25 h ([3]; after CNCC 500 mg/m^2 p.o.): 5 µM
- concentration at 0.5 h ([3]; after CNCC 500 mg/m^2 p.o.): 6 µM
- concentration at 0.75 h ([3]; after CNCC 500 mg/m^2 p.o.): 5.5 µM
- concentration at 1.5 h [3, 5]: 9.2 µM
- concentration at 1 h [3, 5]: 14.2 µM
- concentration at 2 h [3, 5]: 6.3 µM
- concentration [3, 5]: 2.9 µM
- concentration at 4.5 h [3, 5]: 0.7 µM
- concentration at 5 min [3, 5]: 11 µM
- concentration at 0.25 h [3, 5]: 11.7 µM
- concentration at 0.5 h [3, 5]: 16.5 µM
- concentration at 0.75 h [3, 5]: 15 µM
- bioavailability compared with CNCC (in words) [4]: greater than that of CNCC
- plasma concentrations after A1 A2 compared with after CNCC (in words) [4]: much higher
- plasma concentration after A1 A2 compared with after CNCC (in words) ([4]; preliminary data): considerably greater

SMILES: C[S+]([O-])CCN(N=O)C(=O)NCCCl (centres unmarked) [Compound A1]
- T/C × 100 (cell: toxic) (leukemia L 1210; 60 mg/kg i.v.): toxic
- antitumoral activity (in words) (leukemia L 1210; i.v.): low activity
- concentration at 1.5 h ([1]; after CNCC 500 mg/m^2 p.o.): 26.2 µM
- concentration at 1 h ([1]; after CNCC 500 mg/m^2 p.o.): 37.1 µM
- concentration at 2 h ([1]; after CNCC 500 mg/m^2 p.o.): 20.2 µM
- concentration ([1]; after CNCC 500 mg/m^2 p.o.): 11 µM
- concentration at 4.5 h ([1]; after CNCC 500 mg/m^2 p.o.): 6.5 µM
- concentration at 5 min ([1]; after CNCC 500 mg/m^2 p.o.): 13.7 µM
- concentration at 0.25 h ([1]; after CNCC 500 mg/m^2 p.o.): 34.2 µM
- concentration at 0.5 h ([1]; after CNCC 500 mg/m^2 p.o.): 71.4 µM
- concentration at 0.75 h ([1]; after CNCC 500 mg/m^2 p.o.): 32.8 µM
- concentration at 1.5 h [1, 5]: 35.4 µM
- concentration at 1 h [1, 5]: 88 µM
- concentration at 2 h [1, 5]: 23.3 µM
- concentration [1, 5]: 10.1 µM
- concentration at 4.5 h [1, 5]: 4.3 µM
- concentration at 5 min [1, 5]: 208 µM
- concentration at 0.25 h [1, 5]: 206 µM
- concentration at 0.5 h [1, 5]: 177 µM
- concentration at 0.75 h [1, 5]: 124 µM
- concentration at 1.5 h ([2]; after CNCC 500 mg/m^2 p.o.): 20.3 µM
- concentration at 1 h ([2]; after CNCC 500 mg/m^2 p.o.): 18.4 µM
- concentration at 2 h ([2]; after CNCC 500 mg/m^2 p.o.): 12.7 µM
- concentration ([2]; after CNCC 500 mg/m^2 p.o.): 11.1 µM
- concentration at 4.5 h ([2]; after CNCC 500 mg/m^2 p.o.): 3.9 µM
- concentration at 5 min ([2]; after CNCC 500 mg/m^2 p.o.): 2.8 µM
- concentration at 0.25 h ([2]; after CNCC 500 mg/m^2 p.o.): 8 µM
- concentration at 0.5 h ([2]; after CNCC 500 mg/m^2 p.o.): 12 µM
- concentration at 0.75 h ([2]; after CNCC 500 mg/m^2 p.o.): 14.8 µM
- concentration at 1.5 h [2, 5]: 29.2 µM
- concentration at 1 h [2, 5]: 32.9 µM
- concentration at 2 h [2, 5]: 15.7 µM
- concentration [2, 5]: 7.3 µM
- concentration at 5 min [2, 5]: 22.3 µM
- concentration at 0.25 h [2, 5]: 42.4 µM
- concentration at 0.5 h [2, 5]: 52.9 µM
- concentration at 0.75 h [2, 5]: 33.9 µM
- concentration at 1.5 h ([3]; after CNCC 500 mg/m^2 p.o.): 8.6 µM
- concentration at 2 h ([3]; after CNCC 500 mg/m^2 p.o.): 7.4 µM
- concentration ([3]; after CNCC 500 mg/m^2 p.o.): 4.7 µM
- concentration at 4.5 h ([3]; after CNCC 500 mg/m^2 p.o.): 2.8 µM
- concentration at 5 min ([3]; after CNCC 500 mg/m^2 p.o.): 5 µM
- concentration at 0.25 h ([3]; after CNCC 500 mg/m^2 p.o.): 9.4 µM
- concentration at 0.5 h ([3]; after CNCC 500 mg/m^2 p.o.): 10.6 µM
- concentration at 0.75 h ([3]; after CNCC 500 mg/m^2 p.o.): 10 µM
- concentration at 1.5 h [3, 5]: 27 µM
- concentration at 1 h [3, 5]: 39.4 µM
- concentration at 2 h [3, 5]: 19.4 µM
- concentration [3, 5]: 10.6 µM
- concentration at 4.5 h [3, 5]: 3.8 µM
- concentration at 5 min [3, 5]: 26.7 µM
- concentration at 0.25 h [3, 5]: 28.5 µM
- concentration at 0.5 h [3, 5]: 41 µM
- concentration at 0.75 h [3, 5]: 39.2 µM
- bioavailability compared with CNCC (in words) [4]: greater than that of CNCC
- plasma concentrations after A1 A2 compared with after CNCC (in words) [4]: much higher
